Some test systems named below: OVCAR-5; NCI-H226; SK-OV-3; UACC-257; OVCAR-3; SN12C; SF-295; OVCAR-4; K562; COLO 205; RXF 393; CCRF-CEM; HCC 2998; HCT-116; SK-MEL-2; UO-31; NCI-H522; CAKI-1; HOP-92; LOX IMVI.
Common to all, as to assay: DTP human tumour cell line panel, 48 h

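Dose response: 5 concentrations. Exposure: 48 h. Format: 96-well plates. Endpoint: linear interpolation; highest concentration if not reached. GI50: concentration for 50% inhibition of growth.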 Calls of active or inactive are those of the source. No stated cut-off is given here; in the data, active = GI50 up to about 1.1 µM and inactive = higher.

Turning to `N=S(=O)(c1ccccc1)c1ccccc1[N+](=O)[O-]` (centres undefined), the GI50 in the assay with OVCAR-5, in the assay with NCI-H226, in the assay on SK-OV-3, with UACC-257, in the assay on OVCAR-3 and with SN12C was > 100 µM (inactive) throughout. Moreover, the GI50 in the assay with SF-295, in the assay with OVCAR-4, with K562, with COLO 205, with RXF 393 and in the assay on CCRF-CEM was > 100 µM (inactive) throughout. Also, the GI50 is > 100 µM (inactive) in the assay on HCC 2998; > 100 µM (inactive) with HCT-116; 68.5 µM (inactive) with SK-MEL-2; > 100 µM (inactive) in the assay on UO-31; > 100 µM (inactive) in the assay with NCI-H522; > 100 µM (inactive) in the assay with CAKI-1.

For the compound `CN1CN(c2ccccc2)C2(CCNCC2)C1=O`, the GI50 with OVCAR-5, in the assay on NCI-H226, in the assay on SK-OV-3, with UACC-257, in the assay with HOP-92 and in the assay with OVCAR-3 was > 100 µM (inactive) throughout. Moreover, the GI50 in the assay on SN12C, with SF-295, with OVCAR-4, with K562, with COLO 205 and in the assay on LOX IMVI was > 100 µM (inactive) each time. The GI50 with RXF 393, with CCRF-CEM, in the assay with HCC 2998, with HCT-116, in the assay with SK-MEL-2 and with UO-31 was > 100 µM (inactive) each time. For the same compound, the GI50 with NCI-H522 and with CAKI-1 was > 100 µM (inactive) throughout.

`N#Cc1ccc(C2Oc3ccc(Cl)cc3C=C2[N+](=O)[O-])cc1` (centres undefined): the GI50 in the assay on OVCAR-5 was 2.09 µM (inactive); in the assay with NCI-H226, 10.6 µM (inactive); in the assay with SK-OV-3, 2.27 µM (inactive); in the assay with UACC-257, 2.4 µM (inactive); in the assay on HOP-92, 1.39 µM (inactive); in the assay on OVCAR-3, 1.63 µM (inactive). Also, the GI50 is 1.31 µM (inactive) in the assay with SN12C; 2.87 µM (inactive) in the assay on SF-295; 1.79 µM (inactive) in the assay with OVCAR-4; 0.354 µM (active) in the assay on K562; 0.74 µM (active) in the assay on COLO 205; 1.04 µM (active) with LOX IMVI. In addition, the GI50 with RXF 393 is 4.99 µM (inactive); in the assay on CCRF-CEM it was 0.219 µM (active); with HCC 2998 it was 0.979 µM (active); in the assay with HCT-116 it was 0.522 µM (active); in the assay with SK-MEL-2, 1.74 µM (inactive); in the assay with UO-31, 1.63 µM (inactive). Further, the GI50 with NCI-H522 is 1.34 µM (inactive); in the assay with CAKI-1 it was 1.52 µM (inactive).

For the compound `C1CSCCSCSCCS1`, the GI50 with OVCAR-5, in the assay with NCI-H226, in the assay with SK-OV-3, in the assay with UACC-257, in the assay with HOP-92 and with OVCAR-3 was > 100 µM (inactive) each time. Moreover, the GI50 with SN12C, with SF-295, in the assay on OVCAR-4, in the assay on COLO 205, in the assay with LOX IMVI and with RXF 393 was > 100 µM (inactive) each time. Moreover, the GI50 in the assay with HCC 2998, in the assay on HCT-116, in the assay on SK-MEL-2, with UO-31, in the assay with NCI-H522 and in the assay on CAKI-1 was > 100 µM (inactive) each time.

In the case of `O=c1cccccc1NCCCCCCCCNc1cccccc1=O`, the GI50 is > 100 µM (inactive) in the assay on OVCAR-5; > 100 µM (inactive) in the assay with NCI-H226; > 100 µM (inactive) with SK-OV-3; > 100 µM (inactive) with UACC-257; 22.9 µM (inactive) in the assay with HOP-92; 7.59 µM (inactive) in the assay with OVCAR-3. Further, the GI50 is > 100 µM (inactive) with SN12C; 18.8 µM (inactive) in the assay on SF-295; 7.06 µM (inactive) in the assay on K562; > 100 µM (inactive) in the assay with COLO 205; 14.3 µM (inactive) in the assay on LOX IMVI; > 100 µM (inactive) in the assay on RXF 393. Also, the GI50 in the assay on CCRF-CEM was > 100 µM (inactive); with HCC 2998, > 100 µM (inactive); in the assay on HCT-116, 9.62 µM (inactive); with SK-MEL-2 it was > 100 µM (inactive); in the assay on UO-31, 35.4 µM (inactive); with NCI-H522, 75.3 µM (inactive). Besides, the GI50 in the assay with CAKI-1 is > 100 µM (inactive).

Regarding `CC1CC[P+](c2ccccc2)(c2ccccc2)c2c1ccc1ccccc21` (centres undefined), the GI50 was 5.26 µM (inactive) in the assay on OVCAR-5; 0.385 µM (active) in the assay with UACC-257; 1.45 µM (inactive) in the assay on HOP-92; 2.49 µM (inactive) in the assay with SN12C; 3.5 µM (inactive) with SF-295; 6.76 µM (inactive) with OVCAR-4. In addition, the GI50 in the assay with K562 is 0.589 µM (active); with LOX IMVI, 2.33 µM (inactive); with RXF 393, 9.08 µM (inactive); in the assay with CCRF-CEM it was 3.78 µM (inactive); with HCC 2998, 9.48 µM (inactive); with HCT-116 it was 1.96 µM (inactive). For the same compound, the GI50 is 1.63 µM (inactive) with SK-MEL-2, 15.9 µM (inactive) with UO-31, 0.946 µM (active) in the assay on NCI-H522 and 6.75 µM (inactive) in the assay on CAKI-1.

As to `CCCCNC(=O)N/C=C1\C(=O)Oc2ccccc2C1=O`, the GI50 with OVCAR-5 is 68.5 µM (inactive); in the assay with NCI-H226 it was 32.7 µM (inactive); in the assay on UACC-257, 55.7 µM (inactive); in the assay on HOP-92 it was 24.9 µM (inactive); in the assay with SN12C it was 29.5 µM (inactive); in the assay on OVCAR-4, 57.3 µM (inactive). The GI50 is > 100 µM (inactive) in the assay with COLO 205; 70.1 µM (inactive) with LOX IMVI; 15 µM (inactive) with RXF 393; > 100 µM (inactive) in the assay with HCC 2998; 43.9 µM (inactive) in the assay with HCT-116; 20.1 µM (inactive) with SK-MEL-2. Further, the GI50 in the assay on UO-31 is 11.8 µM (inactive).

`Cn1c(=O)c(-c2ccccc2)c(N=[N+]=[N-])c2ccccc21`: the GI50 in the assay with OVCAR-5 is > 100 µM (inactive); with NCI-H226, 67 µM (inactive); in the assay with SK-OV-3, > 100 µM (inactive); in the assay with UACC-257, > 100 µM (inactive); with HOP-92, 17.9 µM (inactive); in the assay with OVCAR-3 it was 44.2 µM (inactive). Further, the GI50 is 95.9 µM (inactive) in the assay on SN12C; 47.9 µM (inactive) with SF-295; 56.5 µM (inactive) in the assay on OVCAR-4; 34.8 µM (inactive) with K562; 44 µM (inactive) in the assay with COLO 205; 80.2 µM (inactive) in the assay on RXF 393. The GI50 is 30.8 µM (inactive) in the assay on CCRF-CEM; 22.4 µM (inactive) in the assay with HCC 2998; 69.5 µM (inactive) in the assay with HCT-116; 46.8 µM (inactive) with UO-31; 26 µM (inactive) in the assay on NCI-H522; 29.4 µM (inactive) with CAKI-1.

As for `CCOC(=O)N1C=NC23C(c4ccccc4)C(c4ccccc4)C12C(=O)N(C)C(=O)N3C` (centres undefined), the GI50 with OVCAR-5, in the assay on SK-OV-3, with UACC-257, in the assay on HOP-92, with OVCAR-3 and in the assay with SN12C was > 100 µM (inactive) each time. Further, the GI50 is > 100 µM (inactive) with SF-295; > 100 µM (inactive) in the assay with OVCAR-4; > 100 µM (inactive) with K562; > 100 µM (inactive) in the assay with COLO 205; > 100 µM (inactive) in the assay on LOX IMVI; 16.3 µM (inactive) with RXF 393. Further, the GI50 in the assay on CCRF-CEM was > 100 µM (inactive); in the assay with HCC 2998, > 100 µM (inactive); with HCT-116 it was > 100 µM (inactive); in the assay on SK-MEL-2 it was > 100 µM (inactive); in the assay on UO-31 it was 77.1 µM (inactive); with NCI-H522 it was > 100 µM (inactive). The GI50 in the assay on CAKI-1 was > 100 µM (inactive).

Consider `C#Cc1cccc(N2C(=O)c3c(c(-c4ccccc4)c(-c4ccc(Cc5ccc(-c6c(-c7ccccc7)c7c(c(-c8ccccc8)c6-c6ccccc6)C(=O)N(c6cccc(C#C)c6)C7=O)cc5)cc4)c(-c4ccccc4)c3-c3ccccc3)C2=O)c1`, for which the GI50 in the assay with OVCAR-5 was > 100 µM (inactive); in the assay with UACC-257, 47.3 µM (inactive); with HOP-92 it was 2.79 µM (inactive); in the assay on OVCAR-3, 44.3 µM (inactive); with SN12C it was 20.7 µM (inactive); in the assay on SF-295, 37.8 µM (inactive). In addition, the GI50 with OVCAR-4 is > 100 µM (inactive); in the assay on K562, 16.9 µM (inactive); in the assay with COLO 205, 27 µM (inactive); with RXF 393, 15.9 µM (inactive); with CCRF-CEM, 26.6 µM (inactive); in the assay with HCC 2998, 44.7 µM (inactive). For the same compound, the GI50 in the assay on HCT-116 is 21 µM (inactive); with SK-MEL-2, 57.9 µM (inactive); with UO-31, 36.7 µM (inactive); in the assay with NCI-H522, > 100 µM (inactive).

On to `CC(C)=CCC/C(C)=C/C=C/C(C)=C/C1C[C@@]2(C(O)O1)[C@H](CCCO)/C(=C(/C)C=O)CC[C@]2(C)O` (some centres undefined), for which the GI50 in the assay with OVCAR-5 was 40.8 µM (inactive); with NCI-H226, 22.4 µM (inactive); in the assay on SK-OV-3, > 10 µM (inactive); with UACC-257, 25.4 µM (inactive); with HOP-92, < 0.01 µM (active); with SN12C, 15.6 µM (inactive). Also, the GI50 in the assay with SF-295 is 11.4 µM (inactive); in the assay with K562 it was 8.89 µM (inactive); in the assay with COLO 205 it was 1.08 µM (active); in the assay with LOX IMVI, 11.7 µM (inactive); in the assay with RXF 393, 18.6 µM (inactive); in the assay on HCC 2998 it was 15 µM (inactive). Moreover, the GI50 was 20.2 µM (inactive) with HCT-116; 18.6 µM (inactive) in the assay on SK-MEL-2; 17.3 µM (inactive) with UO-31; 19.5 µM (inactive) with NCI-H522; 11.6 µM (inactive) with CAKI-1.
